Holding throughout (assay type): functional
A short description of assay [1]: Total growth inhibition of NCI panel of 60 human cancer cell lines.
Assay [2] is described as follows: Growth inhibitory concentration against NCI panel of 60 human cancer cell lines.
Assay [3] in a line: Mean cytotoxicity towards NCI panel of 60 human cancer cell lines. The following applies: read-out: LC50 (the source's name).

Take `COc1cc(C(=O)O[C@H](C(N)=O)[C@]2(C)CO2)c2cccc(C)c2c1`: net growth in assay [1] stopped (TGI) at 2000 nM. Also, the GI50 (commonly the concentration at which growth is held to half of that of the control) in assay [2] came out at 214 nM. For the same compound, the CC50 in assay [3] was 33000 nM.

As for `COc1cc(C(=O)O[C@H](C(=O)NCCCNC(=O)[C@@H](OC(=O)c2cc(OC)cc3c(C)cccc23)[C@]2(C)CO2)[C@]2(C)CO2)c2cccc(C)c2c1`, total growth inhibition in assay [1] (TGI) required 210 nM. In assay [2], this compound displayed a GI50 of 31 nM. For the same compound, the CC50 in assay [3] worked out at 3200 nM.

As to `COc1cc(C(=O)O[C@H](C(=O)NCCN(C)CCNC(=O)[C@@H](OC(=O)c2cc(OC)cc3c(C)cccc23)[C@]2(C)CO2)[C@]2(C)CO2)c2cccc(C)c2c1`, in assay [1], the TGI (in general, the concentration at which net growth stops) was 350 nM. In addition, it took 28 nM to inhibit growth in assay [2] by half (GI50). The CC50 in assay [3] amounted to 14400 nM.

For `COc1cc(C(=O)O[C@H](C(=O)NCCCCCNC(=O)[C@@H](OC(=O)c2cc(OC)cc3c(C)cccc23)[C@]2(C)CO2)[C@]2(C)CO2)c2cccc(C)c2c1`, net growth in assay [1] stopped (TGI) at 3400 nM. Besides, it took 178 nM to inhibit growth in assay [2] by half (GI50). Moreover, the CC50 in assay [3] is 50000 nM.

Compound `COc1cc(C(=O)O[C@H](C(=O)NCCCCNC(=O)[C@@H](OC(=O)c2cc(OC)cc3c(C)cccc23)[C@]2(C)CO2)[C@]2(C)CO2)c2cccc(C)c2c1` yielded a TGI in assay [1] of 550 nM. Also, the 50% growth inhibitory concentration (GI50) in assay [2] was found to be 53 nM. For the same compound, the CC50 in assay [3] was 14800 nM.

In the case of `COc1cc(C(=O)O[C@H](C(=O)NCCNC(=O)[C@@H](OC(=O)c2cc(OC)cc3c(C)cccc23)[C@]2(C)CO2)[C@]2(C)CO2)c2cccc(C)c2c1`, the total growth inhibition concentration (TGI) in assay [1] turned out to be 2400 nM. It took 72 nM to inhibit growth in assay [2] by half (GI50). In addition, the CC50 in assay [3] turned out to be 62000 nM.

These data come from ChEMBL document CHEMBL1139594, “Azinomycin inspired bisepoxides: influence of linker structure on in vitro cytotoxicity and DNA interstrand cross-linking” (2005).
